± gives the standard deviation of the averaged measurements.
Legend:
Assay in all cases: level (log10 ratio to DMSO vehicle control); higher = higher biomarker level / cell amount than vehicle control
Settings in all cases: in DMSO
[1] = compound: FC(F)(F)C(F)(F)C(F)(F)C(F)(F)CCI [1H,1H,2H,2H-Perfluorohexyl iodide]
Description: (§1)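 BioMAP Diversity Plus panel of 12 human primary cell co-culture systems (3C, 4H, LPS, SAg, BT, BF4T, BE3C, CASM3C, HDF3CGF, KF3CT, MyoF, Mphg). Compounds were added 1 h before stimulation and left for 24 h (MyoF 48 h; BT 72 h for soluble read-outs or 6 d for IgG). Biomarkers were read by ELISA, cytotoxicity by SRB, PBMC viability and proliferation by Alamar Blue. Each well value was divided by the mean of 8 DMSO control wells on the same plate and log10 transformed; duplicate blinded samples were tested at 4 concentrations.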

[2] = compound: C=C(C)C(=O)OCC(F)(F)C(F)(F)C(F)(F)F [2,2,3,3,4,4,4-Heptafluorobutyl methacrylate]
Description: as §1

[3] = compound: FC(F)(F)COC(OCC(F)(F)F)OCC(F)(F)F [tris(Trifluoroethoxy)methane]
Description: as §1

Perfluoropinacol = compound: OC(C(F)(F)F)(C(F)(F)F)C(O)(C(F)(F)F)C(F)(F)F [Perfluoropinacol]
Description: as §1

[4] = compound: O=C(O)C(F)(F)C(F)(F)C(F)(F)C(F)(F)C(F)(F)C(F)(F)C(F)(F)F [Ammonium perfluorooctanoate]
Description: as §1

[5] = compound: Cc1ccc(S(=O)(=O)OCC(F)(F)C(F)(F)C(F)(F)C(F)(F)C(F)(F)C(F)F)cc1 [1H,1H,7H-Perfluoroheptyl 4-methylbenzenesulfonate]
Description: as §1

[6] = compound: O=S(=O)(OCC(F)(F)F)C(F)(F)C(F)(F)C(F)(F)C(F)(F)F [2,2,2-Trifluoroethyl perfluorobutanesulfonate]
Description: as §1

| Test System | level (log10) ([1]; 6700 nM) | level (log10) ([1]; 20000 nM) | level (log10) ([1]; 60000 nM) | level (log10) ([2]; 6700 nM) | level (log10) ([2]; 20000 nM) | level (log10) ([2]; 60000 nM) | level (log10) ([3]; 6700 nM) | level (log10) ([3]; 20000 nM) | level (log10) ([3]; 60000 nM) | level (log10) (Perfluoropinacol; 6700 nM) | level (log10) (Perfluoropinacol; 20000 nM) | level (log10) ([4]; 6700 nM) | level (log10) ([4]; 20000 nM) | level (log10) ([4]; 60000 nM) | level (log10) ([5]; 6700 nM) | level (log10) ([5]; 20000 nM) | level (log10) ([5]; 60000 nM) | level (log10) ([6]; 6700 nM) | level (log10) ([6]; 20000 nM) | level (log10) ([6]; 60000 nM) |
| --- | --- | --- | --- | --- | --- | --- | --- | --- | --- | --- | --- | --- | --- | --- | --- | --- | --- | --- | --- | --- |
| BF4T:CCL2/MCP-1 | 0.013 ± 0.059 | 0.026 ± 0.065 | 0.0295 ± 0.13 | 0.026 ± 0.0042 | 0.0355 ± 0.0021 | 0.0345 ± 0.022 | 0.0025 ± 0.023 | -0.0115 ± 0.032 | 0.019 ± 0.061 | 0.0435 ± 0.032 | -0.0175 ± 0.015 | -0.0015 ± 0.013 | 0.0005 ± 0.036 | -0.016 ± 0.069 | -0.026 ± 0.018 | -0.124 ± 0.0085 | -0.0585 ± 0.022 | 0.024 ± 0.0028 | 0.0125 ± 0.005 | 0.017 ± 0.021 |
| BE3C:CXCL11/I-TAC | -0.001 ± 0.0014 | 0.0005 ± 0.0035 | 0.005 ± 0.0099 | 0.0215 ± 0.03 | 0.0225 ± 0.005 | 0.017 ± 0.0085 | 0.0065 ± 0.012 | -0.002 ± 0.0042 | 0.0015 ± 0.0021 | 0.0435 ± 0.00071 | 0.0115 ± 0.021 | 0.0095 ± 0.018 | 0.0125 ± 0.019 | -0.0295 ± 0.0035 | -0.0205 ± 0.0064 | -0.0385 ± 0.00071 | -0.0185 ± 0.019 | 0.017 ± 0.0057 | -0.003 ± 0.0085 | 0.006 ± 0.0085 |
| 3C:CXCL8/IL-8 | -0.0135 ± 0.018 | -0.007 ± 0.014 | 0.0495 ± 0.00071 | 0.0395 ± 0.042 | 0.039 ± 0.0014 | 0.051 ± 0.04 | -0.007 ± 0.016 | -0.0085 ± 0.005 | 0.003 ± 0.013 | 0.0215 ± 0.012 | -0.0255 ± 0.026 | 0.0015 ± 0.0021 | 0.023 ± 0.027 | 0.085 ± 0.065 | -0.0075 ± 0.0021 | -0.0245 ± 0.0078 | -0.061 ± 0.017 | 0.0105 ± 0.012 | 0.014 ± 0.024 | 0.064 ± 0.071 |
| SAg:CD62E/E-Selectin | -0.0095 ± 0.005 | -0.014 ± 0.014 | -0.008 ± 0.018 | 0.0045 ± 0.039 | -0.0225 ± 0.011 | 0.0015 ± 0.019 | 0.004 ± 0.034 | -0.022 ± 0.025 | -0.0045 ± 0.026 | 0.008 ± 0.0071 | -0.15 ± 0.0021 | 0.0045 ± 0.0035 | 0.02 ± 0.013 | 0.035 ± 0.0014 | 0.021 ± 0.0028 | 0.007 ± 0.018 | -0.0115 ± 0.028 | -0.0065 ± 0.015 | 0.006 ± 0.018 | 0.03 ± 0.013 |
| BE3C:CXCL8/IL-8 | 0.0225 ± 0.0078 | 0.016 ± 0.025 | 0.0525 ± 0.057 | 0.016 ± 0.042 | -0.008 ± 0.031 | 0.013 ± 0.058 | 0.018 ± 0.051 | 0.0155 ± 0.04 | 0.0505 ± 0.013 | -0.049 ± 0.0014 | -0.203 ± 0.021 | 0.043 ± 0.021 | 0.0095 ± 0.039 | -0.066 ± 0.04 | -0.0345 ± 0.042 | -0.12 ± 0.059 | -0.126 ± 0.028 | 0.001 ± 0.0071 | -0.0035 ± 0.026 | 0.0225 ± 0.021 |
| BE3C:HLA-DR | -0.0105 ± 0.0064 | 0 ± 0.0014 | -0.005 ± 0.0042 | -0.0005 ± 0.015 | 0.006 ± 0.016 | 0.003 ± 0.035 | -0.0015 ± 0.011 | 0.0155 ± 0.0064 | 0.006 ± 0.021 | -0.0145 ± 0.0064 | -0.0565 ± 0.019 | -0.019 ± 0.0071 | -0.0325 ± 0.012 | -0.068 ± 0.017 | -0.0155 ± 0.005 | -0.0195 ± 0.012 | -0.025 ± 0.0014 | -0.001 ± 0.011 | 0.005 ± 0.0085 | -0.011 ± 0.0014 |
| SAg:SRB | 0.0005 ± 0.0064 | -0.0005 ± 0.005 | 0.0035 ± 0.0078 | -0.0005 ± 0.0078 | 0.0035 ± 0.0035 | 0.002 ± 0.0099 | -0.0155 ± 0.005 | -0.0135 ± 0.0021 | -0.013 ± 0.017 | -0.0285 ± 0.0078 | -0.123 ± 0.0021 | -0.013 ± 0.0042 | -0.012 ± 0.0057 | -0.034 ± 0.0042 | 0.002 ± 0.0057 | -0.017 ± 0.011 | -0.109 ± 0.02 | 0.0025 ± 0.013 | -0.0045 ± 0.0021 | -0.005 |
| LPS:SRB | 0.019 ± 0.023 | 0.0125 ± 0.035 | 0.007 ± 0.024 | -0.012 ± 0.0014 | -0.0075 ± 0.0021 | 0.002 ± 0.0042 | -0.0065 ± 0.0021 | -0.0015 ± 0.011 | -0.0015 ± 0.0078 | -0.0265 ± 0.0021 | -0.151 ± 0.0064 | -0.006 ± 0.0071 | -0.0065 ± 0.00071 | -0.0245 ± 0.005 | 0.006 ± 0.0099 | -0.0075 ± 0.00071 | -0.031 ± 0.0042 | 0.007 ± 0.0014 | -0.0035 ± 0.0092 | -0.004 ± 0.0071 |
| BE3C:CD87/uPAR | -0.0105 ± 0.019 | -0.011 | 0.0285 ± 0.011 | -0.004 ± 0.0028 | 0.0075 ± 0.015 | 0.017 ± 0.027 | -0.01 ± 0.0028 | 0.0475 ± 0.047 | -0.0075 ± 0.023 | -0.0675 ± 0.019 | -0.231 ± 0.016 | 0.0105 ± 0.022 | 0.0315 ± 0.0035 | 0.0125 ± 0.023 | 0.026 ± 0.017 | -0.004 ± 0.0085 | 0.005 ± 0.033 | -0.048 ± 0.0099 | -0.024 ± 0.018 | -0.0355 ± 0.026 |
| SAg:CD69 | 0.0135 ± 0.015 | -0.003 ± 0.0014 | -0.0125 ± 0.005 | -0.016 ± 0.0099 | -0.0215 ± 0.0021 | -0.009 ± 0.0042 | 0.022 ± 0.0042 | 0.0105 ± 0.011 | 0.0215 ± 0.0035 | -0.039 ± 0.017 | -0.19 ± 0.033 | -0.0115 ± 0.00071 | -0.026 ± 0.0014 | -0.062 ± 0.0085 | -0.01 ± 0.0099 | 0.0205 ± 0.016 | 0.0105 ± 0.00071 | -0.0025 ± 0.0092 | -0.0175 ± 0.025 | -0.049 ± 0.042 |
